Measurements from US10392391B2 (Vertex Pharmaceuticals Incorporated, priority 2012, dated 2019).

Biological target: ATR kinase (full-length ATR) (Homo sapiens (Human), UniProt Q13535)
Test: ATR inhibition assay (radioactive-phosphate incorporation)
Assay type: biochemical
Conditions: not given
Protocol: Compounds were screened for their ability to inhibit ATR kinase using a radioactive-phosphate incorporation assay. Assays were carried out in a mixture of 50 mM Tris/HCl (pH 7.5), 10 mM MgCl2 and 1 mM DTT. Final substrate concentrations were 10 μM [γ-33P]ATP (3mCi 33P ATP/mmol ATP, Perkin Elmer) and 800 μM target peptide ([…]) (SEQ ID NO:1).
Assays were carried out at 25° C. in the presence of 5 nM full-length ATR. An assay stock buffer solution was prepared containing all of the reagents listed above, with the exception of ATP and the test compound of interest. 13.5 μL of the stock solution was placed in a 96 well plate followed by addition of 2 μL of DMSO stock containing serial dilutions of the test compound (typically starting from a final concentration of 15 μM with 3-fold serial dilutions) in duplicate (final DMSO concentration 7%). The plate was pre-incubated for 10 minutes at 25° C. and the reaction initiated by addition of 15 μL [γ-33P]ATP (final concentration 10 μM).
The reaction was stopped after […] by the addition of 30 μL 0.1M phosphoric acid containing 2 mM ATP. A multiscreen phosphocellulose filter 96-well plate (Millipore, Cat no. MAPHN0B50) was pretreated with 100 μL 0.2M phosphoric acid prior to the addition of […] of the stopped assay mixture. The plate was washed with 5×200 μL 0.2M phosphoric acid. After drying, 100 μL Optiphase ‘SuperMix’ liquid scintillation cocktail (Perkin Elmer) was added to the well prior to scintillation counting (1450 Microbeta Liquid Scintillation Counter, Wallac).
After removing mean background values for all of the data points, Ki(app) data were calculated from non-linear regression analysis of the initial rate data using the Prism software package (GraphPad Prism version 3.0cx for Macintosh, GraphPad Software, San Diego Calif., USA).

Chain of ATR kinase (full-length ATR) (Q13535 whole entry): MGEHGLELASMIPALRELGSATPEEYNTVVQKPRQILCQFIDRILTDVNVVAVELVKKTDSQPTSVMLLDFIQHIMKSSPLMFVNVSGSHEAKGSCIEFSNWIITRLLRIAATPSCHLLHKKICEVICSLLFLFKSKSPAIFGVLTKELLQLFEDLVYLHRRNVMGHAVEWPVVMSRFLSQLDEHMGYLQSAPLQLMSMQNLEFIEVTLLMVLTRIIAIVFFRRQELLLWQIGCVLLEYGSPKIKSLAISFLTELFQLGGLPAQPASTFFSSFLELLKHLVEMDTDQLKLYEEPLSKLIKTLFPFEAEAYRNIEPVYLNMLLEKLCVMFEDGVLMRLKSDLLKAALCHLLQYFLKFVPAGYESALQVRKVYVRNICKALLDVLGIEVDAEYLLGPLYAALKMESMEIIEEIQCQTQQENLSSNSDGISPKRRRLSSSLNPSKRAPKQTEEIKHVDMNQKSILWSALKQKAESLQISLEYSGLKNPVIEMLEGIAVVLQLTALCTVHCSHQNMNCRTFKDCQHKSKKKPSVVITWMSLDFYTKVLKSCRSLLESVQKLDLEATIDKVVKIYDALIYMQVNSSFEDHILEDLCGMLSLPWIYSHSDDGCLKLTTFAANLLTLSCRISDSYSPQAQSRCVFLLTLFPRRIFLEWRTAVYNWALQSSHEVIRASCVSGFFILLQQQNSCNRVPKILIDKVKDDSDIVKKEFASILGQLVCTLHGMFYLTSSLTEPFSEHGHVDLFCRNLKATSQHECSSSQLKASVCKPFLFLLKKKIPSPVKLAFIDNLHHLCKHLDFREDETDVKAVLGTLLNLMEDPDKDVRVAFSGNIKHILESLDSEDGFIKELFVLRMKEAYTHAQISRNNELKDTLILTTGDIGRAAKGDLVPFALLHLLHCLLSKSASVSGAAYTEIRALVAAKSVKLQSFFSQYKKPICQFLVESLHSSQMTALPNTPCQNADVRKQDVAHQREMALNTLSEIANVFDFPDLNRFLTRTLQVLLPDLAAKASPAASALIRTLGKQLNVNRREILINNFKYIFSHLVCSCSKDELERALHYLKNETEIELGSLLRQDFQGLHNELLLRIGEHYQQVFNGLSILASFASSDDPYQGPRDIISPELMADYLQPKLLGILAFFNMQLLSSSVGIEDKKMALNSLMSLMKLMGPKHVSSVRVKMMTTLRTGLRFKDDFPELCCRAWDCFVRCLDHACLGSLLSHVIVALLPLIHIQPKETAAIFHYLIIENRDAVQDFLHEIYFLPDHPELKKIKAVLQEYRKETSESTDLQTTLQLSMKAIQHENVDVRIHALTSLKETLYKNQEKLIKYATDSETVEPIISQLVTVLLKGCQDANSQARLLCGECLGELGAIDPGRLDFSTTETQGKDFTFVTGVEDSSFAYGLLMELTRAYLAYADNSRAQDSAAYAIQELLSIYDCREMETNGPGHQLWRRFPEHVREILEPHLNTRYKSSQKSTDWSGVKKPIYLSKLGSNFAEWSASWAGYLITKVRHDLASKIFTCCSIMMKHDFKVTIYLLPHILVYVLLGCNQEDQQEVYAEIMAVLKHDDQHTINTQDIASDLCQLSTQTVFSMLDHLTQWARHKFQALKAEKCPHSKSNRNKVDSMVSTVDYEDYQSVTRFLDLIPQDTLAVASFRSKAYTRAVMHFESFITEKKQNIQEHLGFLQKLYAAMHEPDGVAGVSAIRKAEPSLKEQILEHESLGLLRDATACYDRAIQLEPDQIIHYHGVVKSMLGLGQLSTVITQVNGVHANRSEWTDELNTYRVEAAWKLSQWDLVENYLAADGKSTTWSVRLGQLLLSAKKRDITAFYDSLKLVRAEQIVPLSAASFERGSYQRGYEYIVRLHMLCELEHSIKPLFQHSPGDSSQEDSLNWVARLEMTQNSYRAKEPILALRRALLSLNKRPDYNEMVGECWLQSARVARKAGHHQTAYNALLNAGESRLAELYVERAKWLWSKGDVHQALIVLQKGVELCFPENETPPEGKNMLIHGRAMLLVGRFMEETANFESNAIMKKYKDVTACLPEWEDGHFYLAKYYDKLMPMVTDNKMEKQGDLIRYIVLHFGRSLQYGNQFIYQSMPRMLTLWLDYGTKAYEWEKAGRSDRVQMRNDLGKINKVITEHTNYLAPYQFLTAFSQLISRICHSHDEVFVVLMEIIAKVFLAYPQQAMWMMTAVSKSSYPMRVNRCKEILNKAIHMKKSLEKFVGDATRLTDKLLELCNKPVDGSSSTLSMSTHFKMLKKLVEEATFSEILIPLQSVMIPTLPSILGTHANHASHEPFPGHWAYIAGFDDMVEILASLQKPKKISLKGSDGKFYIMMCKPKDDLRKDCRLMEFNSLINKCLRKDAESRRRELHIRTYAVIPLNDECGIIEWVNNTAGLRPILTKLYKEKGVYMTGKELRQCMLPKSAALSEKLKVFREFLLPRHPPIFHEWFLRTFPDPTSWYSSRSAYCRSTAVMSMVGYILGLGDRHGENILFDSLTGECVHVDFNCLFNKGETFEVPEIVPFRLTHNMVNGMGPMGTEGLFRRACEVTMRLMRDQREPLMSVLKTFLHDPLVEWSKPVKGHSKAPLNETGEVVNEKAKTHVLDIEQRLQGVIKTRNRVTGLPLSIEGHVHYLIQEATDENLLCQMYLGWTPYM

Row | Ki | SMILES
1 | 1 to 5 µM | Nc1nn2cc(F)cnc2c1C(=O)Nc1cnccc1-c1cccnc1Cl [I-C-37, 2-amino-N-(2-chloro-[3,4′-bipyridin]-3′-yl)-6-fluoropyrazolo[1,5-a]pyrimidine-3-carboxamide]

Same assay, conditions: Ki(app), 5 nM full-length ATR, 10 μM ATP, 25° C.

Row | Ki | SMILES
2 | 0.01 to 1 µM | Cc1ccncc1-c1ccncc1NC(=O)c1c(N)nn2cc(F)cnc12 [I-C-30, 2-amino-6-fluoro-N-(4-methyl-[3,4′-bipyridin]-3′-yl)pyrazolo[1,5-a]pyrimidine-3-carboxamide]
3 | 0.01 to 1 µM | Nc1nn2cc(F)cnc2c1C(=O)Nc1cnccc1-c1cccnc1O [I-C-32, 2-amino-6-fluoro-N-(2-hydroxy-[3,4′-bipyridin]-3′-yl)pyrazolo[1,5-a]pyrimidine-3-carboxamide]
4 | 0.01 to 1 µM | Cc1ccnnc1-c1ccncc1NC(=O)c1c(N)nn2cc(F)cnc12 [I-C-33, 2-amino-6-fluoro-N-(4-(4-methylpyridazin-3-yl)pyridin-3-yl)pyrazolo[1,5-a]pyrimidine-3-carboxamide]
5 | 0.01 to 1 µM | Cc1nc(F)ccc1-c1ccncc1NC(=O)c1c(N)nn2cc(F)cnc12 [I-C-34, 2-amino-6-fluoro-N-(6-fluoro-2-methyl-[3,4′-bipyridin]-3′-yl)pyrazolo[1,5-a]pyrimidine-3-carboxamide]
6 | 0.01 to 1 µM | Nc1nn2cc(F)cnc2c1C(=O)Nc1cnccc1-c1cccnc1F [I-C-35, 2-amino-6-fluoro-N-(2-fluoro-[3,4′-bipyridin]-3′-yl)pyrazolo[1,5-a]pyrimidine-3-carboxamide]
7 | 0.01 to 1 µM | Cc1cccnc1-c1ccncc1NC(=O)c1c(N)nn2cc(F)cnc12 [I-C-36, 2-amino-6-fluoro-N-(3-methyl-[2,4′-bipyridin]-3′-yl)pyrazolo[1,5-a]pyrimidine-3-carboxamide]
8 | 0.01 to 1 µM | CN1CCC(C(=O)N2CC=C(c3c(F)cncc3NC(=O)c3c(N)nn4cc(F)cnc34)CC2)CC1 [I-C-38, 2-amino-6-fluoro-N-(5-fluoro-1′-(1-methylpiperidine-4-carbonyl)-1′,2′,3′,6′-tetrahydro-[4,4′-bipyridin]-3-yl)pyrazolo[1,5-a]pyrimidine-3-carboxamide]
9 | 0.01 to 1 µM | Cc1nc(C(=O)N2CCN(C)CC2)ccc1-c1ccncc1NC(=O)c1c(N)nn2cc(F)cnc12 [I-C-39, 2-amino-6-fluoro-N-(2-methyl-6-(4-methylpiperazine-1-carbonyl)-[3,4′-bipyridin]-3′-yl)pyrazolo[1,5-a]pyrimidine-3-carboxamide]
10 | 0.01 to 1 µM | Cc1nc(N2CCN(C)CC2)ccc1-c1ccncc1NC(=O)c1c(N)nn2cc(F)cnc12 [I-C-40, 2-amino-6-fluoro-N-(2-methyl-6-(4-methylpiperazin-1-yl)-[3,4′-bipyridin]-3′-yl)pyrazolo[1,5-a]pyrimidine-3-carboxamide]
11 | 0.01 to 1 µM | Cc1nc(O[C@@H]2CCN(C)C2)ccc1-c1ccncc1NC(=O)c1c(N)nn2cc(F)cnc12 [I-C-41, (R)-2-amino-6-fluoro-N-(2-methyl-6-((1-methylpyrrolidin-3-yl)oxy)-[3,4′-bipyridin]-3′-yl)pyrazolo[1,5-a]pyrimidine-3-carboxamide]
12 | 0.01 to 1 µM | Nc1nn2cc(F)cnc2c1C(=O)Nc1cnccc1C1CC1 [I-C-42, 2-amino-N-(4-cyclopropylpyridin-3-yl)-6-fluoropyrazolo[1,5-a]pyrimidine-3-carboxamide]
13 | 0.01 to 1 µM | Nc1nn2cc(F)cnc2c1C(=O)Nc1cnccc1-c1ccc(C(=O)N2CCNCC2)cc1 [I-C-44, 2-amino-6-fluoro-N-(4-(4-(piperazine-1-carbonyl)phenyl)pyridin-3-yl)pyrazolo[1,5-a]pyrimidine-3-carboxamide]
14 | 0.01 to 1 µM | Cc1cc(C(=O)N2CCN(C)CC2)ccc1-c1ccncc1NC(=O)c1c(N)nn2cc(F)cnc12 [I-C-45, 2-amino-6-fluoro-N-(4-(2-methyl-4-(4-methylpiperazine-1-carbonyl)phenyl)pyridin-3-yl)pyrazolo[1,5-a]pyrimidine-3-carboxamide]
15 | 0.01 to 1 µM | CN1CCN(C(=O)c2cnc(-c3ccncc3NC(=O)c3c(N)nn4cc(F)cnc34)c(Cl)c2)CC1 [I-C-46, 2-amino-N-(3-chloro-5-(4-methylpiperazine-1-carbonyl)-[2,4′-bipyridin]-3′-yl)-6-fluoropyrazolo[1,5-a]pyrimidine-3-carboxamide]
16 | 0.01 to 1 µM | Nc1nn2cc(F)cnc2c1C(=O)Nc1cnccc1C1CCN(S(=O)(=O)C2CC2)CC1 [I-C-47, 2-amino-N-(4-(1-(cyclopropylsulfonyl)piperidin-4-yl)pyridin-3-yl)-6-fluoropyrazolo[1,5-a]pyrimidine-3-carboxamide]
17 | 0.01 to 1 µM | Nc1nn2cc(F)cnc2c1C(=O)Nc1cnccc1-c1ccc(C(=O)N2CCN3CCC2CC3)cc1 [I-C-48, N-(4-(4-(1,4-diazabicyclo[3.2.2]nonane-4-carbonyl)phenyl)pyridin-3-yl)-2-amino-6-fluoropyrazolo[1,5-a]pyrimidine-3-carboxamide]

Row | Ki | SMILES
18 | 0.01 to 1 µM | Nc1nn2cc(F)cnc2c1C(=O)Nc1cnccc1-c1ccc(C(=O)N2CCN(C3COC3)CC2)cc1 [I-C-49, 2-amino-6-fluoro-N-(4-(4-(4-(oxetan-3-yl)piperazine-1-carbonyl)phenyl)pyridin-3-yl)pyrazolo[1,5-a]pyrimidine-3-carboxamide]
19 | 0.01 to 1 µM | Nc1nn2cc(F)cnc2c1C(=O)Nc1cnccc1-c1ccc(C(=O)N2CCN(C3COC3)CC2)cc1F [I-C-51, 2-amino-6-fluoro-N-(4-(2-fluoro-4-(4-(oxetan-3-yl)piperazine-1-carbonyl)phenyl)pyridin-3-yl)pyrazolo[1,5-a]pyrimidine-3-carboxamide]
20 | 0.01 to 1 µM | Nc1nn2cc(F)cnc2c1C(=O)Nc1cnccc1-c1ccc(C(=O)N2CCN(C3COC3)CC2)nc1 [I-C-52, 2-amino-6-fluoro-N-(6-(4-(oxetan-3-yl)piperazine-1-carbonyl)-[3,4′-bipyridin]-3′-yl)pyrazolo[1,5-a]pyrimidine-3-carboxamide]
21 | 0.01 to 1 µM | Nc1nn2cc(F)cnc2c1C(=O)Nc1cnccc1-c1ccc(C(=O)N2CCC(N3CCCC3)CC2)nc1 [I-C-53, 2-amino-6-fluoro-N-(6-(4-(pyrrolidin-1-yl)piperidine-1-carbonyl)-[3,4′-bipyridin]-3′-yl)pyrazolo[1,5-a]pyrimidine-3-carboxamide]
22 | 0.01 to 1 µM | Nc1nn2cc(F)cnc2c1C(=O)Nc1cnccc1-c1ccc(C(=O)N2CCC(N3CCC3)CC2)nc1 [I-C-54, 2-amino-N-(6-(4-(azetidin-1-yl)piperidine-1-carbonyl)-[3,4′-bipyridin]-3′-yl)-6-fluoropyrazolo[1,5-a]pyrimidine-3-carboxamide]
23 | 0.01 to 1 µM | Cn1ccnc1-c1ccncc1NC(=O)c1c(N)nn2cc(F)cnc12 [I-C-55, 2-amino-6-fluoro-N-(4-(1-methyl-1H-imidazol-2-yl)pyridin-3-yl)pyrazolo[1,5-a]pyrimidine-3-carboxamide]
24 | 0.01 to 1 µM | Cn1cncc1-c1ccncc1NC(=O)c1c(N)nn2cc(F)cnc12 [I-C-56, 2-amino-6-fluoro-N-(4-(1-methyl-1H-imidazol-5-yl)pyridin-3-yl)pyrazolo[1,5-a]pyrimidine-3-carboxamide]
25 | 0.01 to 1 µM | Cn1nccc1-c1ccncc1NC(=O)c1c(N)nn2cc(F)cnc12 [I-C-57, 2-amino-6-fluoro-N-(4-(1-methyl-1H-pyrazol-5-yl)pyridin-3-yl)pyrazolo[1,5-a]pyrimidine-3-carboxamide]
26 | 0.01 to 1 µM | Cn1c(-c2ccncc2NC(=O)c2c(N)nn3cc(F)cnc23)cccc1=O [I-C-58, 2-amino-6-fluoro-N-(1-methyl-6-oxo-1,6-dihydro-[2,4′-bipyridin]-3′-yl)pyrazolo[1,5-a]pyrimidine-3-carboxamide]
27 | 0.01 to 1 µM | Cn1cc(-c2ccncc2NC(=O)c2c(N)nn3cc(F)cnc23)ccc1=O [I-C-59, 2-amino-6-fluoro-N-(1-methyl-6-oxo-1,6-dihydro-[3,4′-bipyridin]-3′-yl)pyrazolo[1,5-a]pyrimidine-3-carboxamide]
28 | 0.01 to 1 µM | Nc1nn2cc(F)cnc2c1C(=O)Nc1cnccc1-c1ccccn1 [I-C-60, N-([2,4′-bipyridin]-3′-yl)-2-amino-6-fluoropyrazolo[1,5-a]pyrimidine-3-carboxamide]
29 | 0.01 to 1 µM | CS(=O)(=O)c1ccc(-c2ccncc2NC(=O)c2c(N)nn3cc(F)cnc23)cc1 [I-C-61, 2-amino-6-fluoro-N-(4-(4-(methylsulfonyl)phenyl)pyridin-3-yl)pyrazolo[1,5-a]pyrimidine-3-carboxamide]
30 | 0.01 to 1 µM | Cc1nccnc1-c1ccncc1NC(=O)c1c(N)nn2cc(F)cnc12 [I-C-62, 2-amino-6-fluoro-N-(4-(3-methylpyrazin-2-yl)pyridin-3-yl)pyrazolo[1,5-a]pyrimidine-3-carboxamide]
31 | 0.01 to 1 µM | Nc1nn2cc(F)cnc2c1C(=O)Nc1cnccc1-c1ccc(S(=O)(=O)N2CCC2)cc1 [I-C-64, 2-amino-N-(4-(4-(azetidin-1-ylsulfonyl)phenyl)pyridin-3-yl)-6-fluoropyrazolo[1,5-a]pyrimidine-3-carboxamide]
32 | 0.01 to 1 µM | Cn1ncnc1-c1ccncc1NC(=O)c1c(N)nn2cc(F)cnc12 [I-C-65, 2-amino-6-fluoro-N-(4-(1-methyl-1H-1,2,4-triazol-5-yl)pyridin-3-yl)pyrazolo[1,5-a]pyrimidine-3-carboxamide]
